Measurements published in patent US5763480A, “Inhibitors of cell-medicated disorders” (priority 1994, dated 1998).
Read-outs that look alike come from different tables or passages of the source.

Columns and labels:
[1] = Solubility of Tl and In EDTA complexes versus halide salts in physiological saline; type: physicochemical; conditions: physiological saline / physiological solvents
Description: The pH of the resulting solutions was then raised to pH 7.0 and filtered to achieve sterility. […] The solubility characteristics of these Tl and In complexes were compared to the solubility characteristics of the respective halogen salts.

bone resorption [2] = conditions: cited from earlier work
[3] = tested on: osteoclast-mediated bone resorption; experiment: PTH stimulated bone resorption of rats in vivo, serum calcium (hypercalcemia model)
Procedure: The ability of the metal-EDTA complexes to inhibit osteoclast-mediated bone resorption was tested on two groups of experimental rats treated to provide a hypercalcemia model (according to the procedures of Jaeger et al., Am. J. Physiol., 252, E790-E798 (1987)) as compared to two groups of untreated control rats. Experimental rats were surgically parathyroidectomized, and the effectiveness of the parathyroidectomy was gauged by determining the subject rats' serum calcium levels 72 hours post-surgery. A fall in calcium observed at that time reflected the decrease of bone resorption resulting from the removal of the parathyroid glands and the consequent decrease in circulating parathyroid hormone (PTH), a regulator of extra-cellular Ca^++ concentration. […] Serum calcium levels were determined after a 24-hour fast on the third day after the last drug administration and again two weeks later.
All the animals in this study underwent the same two surgical procedures and received PTH via the implanted osmotic pump starting on day 3. […] After the two weeks were complete, serum calcium was determined again and compared to the earlier values and the controls. […]

[4] = tested on: chloride channel and proton pump of ruffled membrane vesicles; experiment: Valinomycin reversal test distinguishing chloride channel and proton pump in ruffled membrane vesicles; type: biochemical; conditions: control measurement, 1 micromolar valinomycin
Procedure: Because both the chloride channel and the proton pump are present in the ruffled membrane vesicles, the inhibition of acidification that was observed was possibly due to effects on either or both of these transporters. The effects of these two transporters were distinguished in other experiments by noting and using the differential effects of valinomycin on the chloride channel and proton pump in the presence of 120 mM K^+. This drug relieves the build-up of membrane potential yet permits proton transport.

[5] = tested on: proton pump of the osteoclast ruffled membrane vesicles; type: biochemical; conditions: read-out: 50% effective concentration, inhibition of vesicle acidification, FIG. 3
Description: The effect of the metal-EDTA complexes on the proton pump of isolated osteoclast ruffled membrane vesicles was studied. For the study, the isolation, preparation and assay of the acidifying ruffled membrane vesicles were accomplished according to the procedures of Blair et al., J. Cell. Biochem., 48, 401-410 (1992).
The y-axis indicates the acidification by the membranes in relation to the molar concentration of the test composition, as indicated on the x-axis.

osteoclasts = experiment: Inhibition of osteoclast-mediated bone resorption in vitro (release of radiolabelled bone); type: cell-based, laying hens; conditions: read-out: 50% effective concentration, inhibition of bone resorption by osteoclasts in culture, FIG. 2, up to six days, labelled bone, 10,000 cells per well
Procedure: Osteoclasts were isolated from calcium-deprived, laying hens, and metabolically radiolabelled bone was prepared therefrom (Blair et al., J. Cell Biol., 102, 1164-1172 (1986)). These osteoclasts were cultured in 24 well dishes at 10,000 cells per well, to which were added labelled bone and test compounds. The culture supernatants were assayed for released radioactivity for up to six days after the addition of the labelled bone.
The y-axis indicates the percentage of the total radiolabelled bone that was released by osteoclast activity to the culture supernatant in response to varying the molar concentration (x-axis) of the various test compositions. […] The 50% effective concentrations of suramin and gallium nitrate were 700 nM and 2000 nM, respectively.

bone resorption [6] = conditions: in vivo; cited from earlier work
cellular proton pump = experiment: Blocking of cellular proton pump by metal-chelate complexes / stopping of the block by chelating agents; conditions: for blocking of the cellular proton pump in combination with Tl or In: chelating agent combined with Tl or In

With `[Cl][Tl]([Cl])[Cl]` [TlCl3] the “solubility (in words)” value [1] was “could not be prepared”.

For `[Al]` [Aluminum], the “effect on bone calcium loss / bone resorption” value (bone resorption [2]; gallium nitrate in humans, aluminum in accidental poisoning) is given as “inhibit bone resorption”.

In the case of “PTH: synthetic PTH (BPTH 1-34 (i.e., rat peptide 1-34), purchased from Bachem California) (AVSEIQLMHNLGKHLASVERMQWLRKKLQDVHNF; Parathyroid hormone; UniProt P04089 32-65, looked up, fragment)”, the “serum calcium (in words)” value ([3]; PTH without Tl-EDTA or In-EDTA, with or without parathyroid gland) is reported as “elevated calcium concentrations” and the “serum calcium level relative to pretreatment levels” value ([3]; constant PTH by subcutaneous osmotic pump, parathyroidectomized rats) is reported as 150%.

For `CC(C)[C@@H]1NC(=O)[C@H](C)OC(=O)[C@@H](C(C)C)NC(=O)[C@@H](C(C)C)OC(=O)[C@H](C(C)C)NC(=O)[C@H](C)OC(=O)[C@@H](C(C)C)NC(=O)[C@@H](C(C)C)OC(=O)[C@H](C(C)C)NC(=O)[C@H](C)OC(=O)[C@@H](C(C)C)NC(=O)[C@@H](C(C)C)OC1=O` [valinomycin], the “recovery of acidification after chloride channel inhibition” value [4] was “recovered when 1 micromolar valinomycin was added”.

With `[Tl]` [Tl, thallium] the EC50 [5] was 30 µM.

For `O=[N+]([O-])[O-].O=[N+]([O-])[O-].O=[N+]([O-])[O-].[Ga+3]` [gallium nitrate], the adverse effects (bone resorption [2]; gallium compound treatment) is listed as “anemia, nausea and vomiting, and renal toxicity” and the EC50 (osteoclasts) is listed as 2 µM.

For `O=P(O)(O)C(Cl)(Cl)P(=O)(O)O` [clodronate], the adverse effects (bone resorption [6]) is given as “development of acute leukemia” and the “efficacy on bone resorption and bone disease” value (bone resorption [6]) is given as “effective not only in Paget's disease, but also in the treatment of hypercalcemia and osteolytic bone disease”.

For `CC(O)(P(=O)(O)O)P(=O)(O)O` [etidronate], the adverse effects (bone resorption [6]) is given as “impaired mineralization and thus, paradoxically, increased bone fragility” and the “efficacy on bone resorption and bone disease” value (bone resorption [6]) is given as “effective inhibitor of bone resorption”.

In the case of `O=C(O)CN(CC(=O)O)[C@@H]1CCCC[C@H]1N(CC(=O)O)CC(=O)O` (relative stereo) [CDTA, trans-1,2-diaminocyclohexane-N,N,N',N'-tetraacetic acid], the “stopping of the proton pump-blocking effect by chelating agent” value (“stopping … by chelating agent” below) (cellular proton pump; In(III) and Tl(III)) is reported as “stops the cellular proton pump-blocking effect” and the “blocking of the cellular proton pump in combination with Tl or In” value (shortened to “blocking of the cellular proton pump”) (cellular proton pump) is reported as “ineffective”.

In the case of `[Ga]` [Ga, gallium], the EC50 [5] is reported as 300 µM.

`Cc1ccc(C(=O)Nc2ccc(S(=O)(=O)O)c3cc(S(=O)(=O)O)cc(S(=O)(=O)O)c23)cc1NC(=O)c1cccc(NC(=O)Nc2cccc(C(=O)Nc3cc(C(=O)Nc4ccc(S(=O)(=O)O)c5cc(S(=O)(=O)O)cc(S(=O)(=O)O)c45)ccc3C)c2)c1` [suramin] showed an EC50 (osteoclasts; Osteoclast, 144 h) of 0.7 µM.

With `O=C(O)CN(CCN(CC(=O)O)CC(=O)O)CC(=O)O` [EDTA, ethylenediaminetetraacetic acid] the “suitability for stopping the effect” value (cellular proton pump; metal is Tl or In) was “not a suitable chelating agent for stopping the effect”.

For `O=C(O)CN(CCN(CC(=O)O)CC(=O)O)CCN(CC(=O)O)CC(=O)O` [DPTA, diethylenetriaminepentaacetic acid], the “stopping … by chelating agent” value (cellular proton pump; In(III) and Tl(III)) was “stops the cellular proton pump-blocking effect” and the “blocking of the cellular proton pump” value (cellular proton pump) was “ineffective”.

In the case of `O=C(O)CN(CCOCCOCCN(CC(=O)O)CC(=O)O)CC(=O)O` [EGTA, ethylene glycol bis (o-aminoethyl ether) N,N,N',N'-tetraacetic acid], the “stopping … by chelating agent” value (cellular proton pump; Ga(III)) is reported as “stops the cellular proton pump-blocking effect” and the “blocking of the cellular proton pump” value (cellular proton pump) is reported as “ineffective”.
